# The source made the active and inactive calls. No cut-off for these calls is given here.
# Assays:
# [1] = molecular target: T1, Tryptophan 2,3-dioxygenase (Homo sapiens, UniProt P48775); test: Inhibition of N-terminal hexa-histidine tagged human TDO (19 to 388 residues) expressed in Escherichia coli Transetta (DE3) using L-tryptophan as substrate at 100 uM preincubated with enzyme for 10 mins followed by substrate addition and measured after 30 to 60 mins by microplate reader analysis relative to control; settings: time 40-70 min
# Target sequence in this assay (P48775 whole entry, looked up, the tested form may be a part): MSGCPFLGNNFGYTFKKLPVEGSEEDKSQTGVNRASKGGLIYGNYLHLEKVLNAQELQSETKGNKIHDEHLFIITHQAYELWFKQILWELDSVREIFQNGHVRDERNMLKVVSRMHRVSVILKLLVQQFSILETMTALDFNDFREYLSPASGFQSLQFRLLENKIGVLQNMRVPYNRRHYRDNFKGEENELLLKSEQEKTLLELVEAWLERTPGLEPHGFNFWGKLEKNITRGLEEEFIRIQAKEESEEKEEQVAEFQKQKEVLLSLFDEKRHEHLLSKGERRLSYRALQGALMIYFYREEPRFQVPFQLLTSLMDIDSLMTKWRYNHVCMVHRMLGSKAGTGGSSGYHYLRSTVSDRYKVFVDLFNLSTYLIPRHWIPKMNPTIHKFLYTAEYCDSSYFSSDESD
# [2] = test system: B16; test: Cytotoxicity against mouse B16 cells assessed as inhibition of cell growth incubated for 24 hrs by MTT assay; assay type: functional, cell-based; settings: B16, 24 h
# [3] = Toxicity in BALB/c mouse implanted with mouse CT26 cells assessed as reduction in body weight at 50 mg/kg, IG administered every one day for 9 days and measured every 3 days; assay type: organism-based; settings: in vivo, po, 216 h, time 9 day
# [4] = test system: CT26; test: Antitumor activity against mouse CT26 cells implanted in BALB/c mouse assessed as inhibition of tumor volume at 50 mg/kg, IG administered every one day for 9 days and measured every 3 days by vernier caliper analysis relative to control; assay type: functional; settings: CT26, po, 216 h, time 9 day
# [5] = test system: CT26; test: Antitumor activity against mouse CT26 cells implanted in BALB/c mouse assessed as reduction in tumor weight at 50 mg/kg, IG administered every one day for 9 days and measured every 3 days by vernier caliper analysis; assay type: functional, organism-based; settings: time 9.0 day
# [6] = molecular target: T1, Tryptophan 2,3-dioxygenase; test: Inhibition of N-terminal hexa-histidine tagged human TDO (19 to 388 residues) expressed in Escherichia coli Transetta (DE3) using L-tryptophan as substrate preincubated with enzyme for 10 mins followed by substrate addition and measured after 30 to 60 mins by microplate reader analysis
# Target sequence in this assay (P48775 whole entry, the tested form may be a part): as the sequence (P48775 whole entry, looked up, the tested form may be a part) above
# [7] = test system: MOLM-13; test: Cytotoxicity against human MOLM-13 cells assessed as inhibition of cell growth incubated for 24 hrs by MTT assay; assay type: functional, cell-based; settings: MOLM-13, 24 h
# [8] = molecular target: T2, Indoleamine 2,3-dioxygenase 1 (Homo sapiens, UniProt P14902); test: Inhibition of N-terminal hexa-histidine tagged human IDO1 (12 to 403 residues) expressed in Escherichia coli Transetta (DE3) using L-tryptophan as substrate at 10 uM preincubated with enzyme for 10 mins followed by substrate addition and measured after 30 to 60 mins by microplate reader analysis relative to control; settings: time 40-70 min
# Target sequence in this assay (P14902 whole entry, looked up, the tested form may be a part): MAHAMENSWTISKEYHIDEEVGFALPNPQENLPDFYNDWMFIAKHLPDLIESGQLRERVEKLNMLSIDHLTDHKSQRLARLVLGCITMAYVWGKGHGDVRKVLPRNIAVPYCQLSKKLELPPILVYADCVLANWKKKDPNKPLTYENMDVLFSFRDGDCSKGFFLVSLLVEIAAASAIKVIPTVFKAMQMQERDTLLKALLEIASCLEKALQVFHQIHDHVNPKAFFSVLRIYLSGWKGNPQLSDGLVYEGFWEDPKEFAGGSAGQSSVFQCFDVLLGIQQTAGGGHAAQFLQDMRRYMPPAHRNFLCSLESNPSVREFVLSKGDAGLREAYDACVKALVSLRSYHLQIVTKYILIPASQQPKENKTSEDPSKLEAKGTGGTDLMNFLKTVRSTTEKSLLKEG
# [9] = test system: HepG2; test: Cytotoxicity against human HepG2 cells assessed as inhibition of cell growth incubated for 24 hrs by MTT assay; assay type: functional, cell-based; settings: HepG2, 24 h
# [10] = molecular target: T2, Indoleamine 2,3-dioxygenase 1; test: Inhibition of N-terminal hexa-histidine tagged human IDO1 (12 to 403 residues) expressed in Escherichia coli Transetta (DE3) using L-tryptophan as substrate preincubated with enzyme for 10 mins followed by substrate addition and measured after 30 to 60 mins by microplate reader analysis
# Target sequence in this assay (P14902 whole entry, the tested form may be a part): as the sequence (P14902 whole entry, looked up, the tested form may be a part) above
# [11] = test system: CT26; test: Antitumor activity against mouse CT26 cells implanted in BALB/c mouse assessed as reduction in tumor volume at 50 mg/kg, IG administered every one day for 9 days and measured every 3 days by vernier caliper analysis relative to control; assay type: functional, organism-based; settings: time 9.0 day
# [12] = molecular target: T1, Tryptophan 2,3-dioxygenase; test: Inhibition of N-terminal hexa-histidine tagged human TDO (19 to 388 residues) expressed in Escherichia coli Transetta (DE3) using L-tryptophan as substrate at 10 uM preincubated with enzyme for 10 mins followed by substrate addition and measured after 30 to 60 mins by microplate reader analysis relative to control; settings: time 40-70 min
# Target sequence in this assay (P48775 whole entry, looked up, the tested form may be a part): as the sequence (P48775 whole entry, looked up, the tested form may be a part) above
# [13] = test system: Jurkat; test: Cytotoxicity against human Jurkat cells assessed as inhibition of cell growth incubated for 24 hrs by MTT assay; assay type: functional, cell-based
# [14] = molecular target: T2, Indoleamine 2,3-dioxygenase 1; test: Inhibition of N-terminal hexa-histidine tagged human IDO1 (12 to 403 residues) expressed in Escherichia coli Transetta (DE3) using L-tryptophan as substrate at 100 uM preincubated with enzyme for 10 mins followed by substrate addition and measured after 30 to 60 mins by microplate reader analysis relative to control; settings: time 40-70 min
# Target sequence in this assay (P14902 whole entry, looked up, the tested form may be a part): as the sequence (P14902 whole entry, looked up, the tested form may be a part) above
# [15] = test system: H22; test: Cytotoxicity against mouse H22 cells assessed as inhibition of cell growth incubated for 24 hrs by MTT assay; assay type: functional, cell-based; settings: H22, 24 h
# [16] = Cytotoxicity against […] cells assessed as inhibition of cell growth incubated for 24 hrs by MTT assay; assay type: functional, cell-based; settings: Mus musculus, Hepa1-6, 24 h
# [17] = Toxicity in BALB/c mouse implanted with mouse CT26 cells assessed as reduction in body weight at 12.5 to 50 mg/kg, IG administered every one day for 9 days and measured every 3 days; assay type: organism-based; settings: in vivo, po, 216 h, dose 12.5-50 mg/kg, time 9 day
# [18] = test system: CT26; test: Downregulation of Foxp3 expression in tumor of BALB/c mouse implanted with mouse CT26 cells at 12.5 to 50 mg/kg, IG administered every one day for 9 days by Hematoxylin staining based immunohistochemistry analysis; assay type: functional, organism-based; settings: dose 12.5-50 mg/kg, time 9.0 day
# [19] = molecular target: T1, Tryptophan 2,3-dioxygenase; test: Inhibition of TDO in HEK293-A cells transfected with pCMV-TDO2; assay type: cell-based
# Target sequence in this assay (P48775 whole entry, the tested form may be a part): as the sequence (P48775 whole entry, looked up, the tested form may be a part) above
# [20] = test system: CT26; test: Antitumor activity against mouse CT26 cells implanted in BALB/c mouse assessed as inhibition of tumor volume at 25 mg/kg, IG administered every one day for 9 days and measured every 3 days by vernier caliper analysis relative to control; assay type: functional; settings: CT26, po, 216 h, time 9 day
# [21] = test system: CT26; test: Antitumor activity against mouse CT26 cells implanted in BALB/c mouse assessed as reduction in tumor volume at 12.5 to 50 mg/kg, IG administered every one day for 9 days and measured every 3 days by vernier caliper analysis; assay type: functional, organism-based; settings: dose 12.5-50 mg/kg, time 9.0 day
# [22] = test system: CT26; test: Upregulation of CD8 expression in tumor of BALB/c mouse implanted with mouse CT26 cells at 12.5 to 50 mg/kg, IG administered every one day for 9 days by Hematoxylin staining based immunohistochemistry analysis; assay type: functional, organism-based; settings: dose 12.5-50 mg/kg, time 9.0 day
# [23] = test system: CT26; test: Downregulation of TNF-alpha expression in tumor of BALB/c mouse implanted with mouse CT26 cells at 12.5 to 50 mg/kg, IG administered every one day for 9 days by Hematoxylin staining based immunohistochemistry analysis; assay type: functional, organism-based; settings: dose 12.5-50 mg/kg, time 9.0 day
# [24] = test system: HEK293; test: Cytotoxicity against HEK293 cells assessed as inhibition of cell growth at <10 uM incubated for 24 hrs by MTT assay; assay type: toxicity, cell-based; settings: human, hek293, 24 h
# [25] = test system: CT26; test: Antitumor activity against mouse CT26 cells implanted in BALB/c mouse assessed as reduction in tumor weight at 12.5 to 50 mg/kg, IG administered every one day for 9 days and measured every 3 days by vernier caliper analysis; assay type: functional, organism-based; settings: dose 12.5-50 mg/kg, time 9.0 day
# [26] = molecular target: Vascular endothelial growth factor receptor 2 (Homo sapiens) (UniProt P35968); test: Inhibition of human KDR at 2 uM by DiscoveryX Kinomescan assay relative to control
# [27] = molecular target: DNA-dependent protein kinase catalytic subunit (Homo sapiens) (UniProt P78527); test: Inhibition of human DNA-PK at 2 uM by DiscoveryX Kinomescan assay relative to control
# [28] = molecular target: Mast/stem cell growth factor receptor Kit (Homo sapiens) (UniProt P10721); test: Inhibition of human c-KIT at 2 uM by DiscoveryX Kinomescan assay relative to control
# [29] = molecular target: Tyrosine-protein kinase JAK3 (Homo sapiens) (UniProt P52333); test: Inhibition of human JAK3 at 2 uM by DiscoveryX Kinomescan assay relative to control
# [30] = molecular target: Receptor-type tyrosine-protein kinase FLT3 (Homo sapiens) (UniProt P36888); test: Inhibition of human FLT3 at 2 uM by DiscoveryX Kinomescan assay relative to control
# [31] = molecular target: Tyrosine-protein kinase BTK (Homo sapiens) (UniProt Q06187); test: Inhibition of human BTK at 2 uM by DiscoveryX Kinomescan assay relative to control
# [32] = molecular target: Tyrosine-protein kinase Yes (Homo sapiens) (UniProt P07947); test: Inhibition of human YES at 2 uM by DiscoveryX Kinomescan assay relative to control
# [33] = molecular target: Serine/threonine-protein kinase B-raf (Homo sapiens) (UniProt P15056); test: Inhibition of human B-Raf at 2 uM by DiscoveryX Kinomescan assay relative to control
# [34] = molecular target: Tyrosine-protein kinase Lyn (Homo sapiens) (UniProt P07948); test: Inhibition of human LYN at 2 uM by DiscoveryX Kinomescan assay relative to control
# [35] = molecular target: Serine/threonine-protein kinase pim-1 (Homo sapiens) (UniProt P11309); test: Inhibition of human PIM-1 at 2 uM by DiscoveryX Kinomescan assay relative to control
# [36] = molecular target: Platelet-derived growth factor receptor alpha (Homo sapiens) (UniProt P16234); test: Inhibition of human PDGFRalpha at 2 uM by DiscoveryX Kinomescan assay relative to control
# [37] = molecular target: Tyrosine-protein kinase JAK1 (Homo sapiens) (UniProt P23458); test: Inhibition of human JAK1 at 2 uM by DiscoveryX Kinomescan assay relative to control
# [38] = molecular target: Tyrosine-protein kinase JAK2 (Homo sapiens) (UniProt O60674); test: Inhibition of human JAK2 at 2 uM by DiscoveryX Kinomescan assay relative to control
# [39] = molecular target: Serine/threonine-protein kinase pim-2 (Homo sapiens) (UniProt Q9P1W9); test: Inhibition of human PIM-2 at 2 uM by DiscoveryX Kinomescan assay relative to control
# [40] = molecular target: Tyrosine-protein kinase receptor UFO (Homo sapiens) (UniProt P30530); test: Inhibition of human AXL at 2 uM by DiscoveryX Kinomescan assay relative to control
# [41] = test system: Receptor-type tyrosine-protein kinase FLT3 (Homo sapiens), P36888 [D835Y]; test: Inhibition of human FLT3 D835Y mutant at 2 uM by DiscoveryX Kinomescan assay relative to control
# [42] = molecular target: RAF proto-oncogene serine/threonine-protein kinase (Homo sapiens) (UniProt P04049); test: Inhibition of human c-Raf at 2 uM by DiscoveryX Kinomescan assay relative to control
# [43] = test system: CT26; test: Antitumor activity against mouse CT26 cells implanted in BALB/c mouse assessed as inhibition of tumor volume at 30 mg/kg, IG administered every one day for 9 days and measured every 3 days by vernier caliper analysis relative to control; assay type: functional; settings: CT26, po, 216 h, time 9 day
# Sequence of Mast/stem cell growth factor receptor Kit (Homo sapiens) (P10721 whole entry): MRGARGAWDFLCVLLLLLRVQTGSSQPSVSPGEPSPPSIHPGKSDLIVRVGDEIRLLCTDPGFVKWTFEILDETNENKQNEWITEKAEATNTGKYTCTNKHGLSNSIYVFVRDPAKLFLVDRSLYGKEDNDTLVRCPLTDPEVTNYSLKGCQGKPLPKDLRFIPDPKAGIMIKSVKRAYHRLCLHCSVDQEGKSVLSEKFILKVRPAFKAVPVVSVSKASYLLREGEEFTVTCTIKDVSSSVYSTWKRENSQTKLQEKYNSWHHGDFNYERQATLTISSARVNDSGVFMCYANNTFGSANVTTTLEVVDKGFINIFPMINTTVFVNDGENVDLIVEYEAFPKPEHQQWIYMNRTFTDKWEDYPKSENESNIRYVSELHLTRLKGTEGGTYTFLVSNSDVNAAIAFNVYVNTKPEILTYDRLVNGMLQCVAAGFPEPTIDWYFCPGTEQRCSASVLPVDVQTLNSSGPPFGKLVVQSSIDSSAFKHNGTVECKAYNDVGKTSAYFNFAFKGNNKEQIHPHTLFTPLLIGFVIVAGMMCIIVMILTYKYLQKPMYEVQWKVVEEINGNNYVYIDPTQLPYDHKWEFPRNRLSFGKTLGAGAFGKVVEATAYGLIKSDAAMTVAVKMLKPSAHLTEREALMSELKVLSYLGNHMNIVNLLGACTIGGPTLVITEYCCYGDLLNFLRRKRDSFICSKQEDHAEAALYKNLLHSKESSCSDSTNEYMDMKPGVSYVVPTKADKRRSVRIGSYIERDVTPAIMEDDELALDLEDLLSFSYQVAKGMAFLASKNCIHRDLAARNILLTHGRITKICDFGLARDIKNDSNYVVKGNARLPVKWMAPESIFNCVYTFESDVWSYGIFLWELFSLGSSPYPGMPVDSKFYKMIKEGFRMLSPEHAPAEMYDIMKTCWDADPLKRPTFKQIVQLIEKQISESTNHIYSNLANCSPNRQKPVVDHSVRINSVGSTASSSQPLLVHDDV
# Sequence of Tyrosine-protein kinase JAK2 (Homo sapiens) (O60674 whole entry): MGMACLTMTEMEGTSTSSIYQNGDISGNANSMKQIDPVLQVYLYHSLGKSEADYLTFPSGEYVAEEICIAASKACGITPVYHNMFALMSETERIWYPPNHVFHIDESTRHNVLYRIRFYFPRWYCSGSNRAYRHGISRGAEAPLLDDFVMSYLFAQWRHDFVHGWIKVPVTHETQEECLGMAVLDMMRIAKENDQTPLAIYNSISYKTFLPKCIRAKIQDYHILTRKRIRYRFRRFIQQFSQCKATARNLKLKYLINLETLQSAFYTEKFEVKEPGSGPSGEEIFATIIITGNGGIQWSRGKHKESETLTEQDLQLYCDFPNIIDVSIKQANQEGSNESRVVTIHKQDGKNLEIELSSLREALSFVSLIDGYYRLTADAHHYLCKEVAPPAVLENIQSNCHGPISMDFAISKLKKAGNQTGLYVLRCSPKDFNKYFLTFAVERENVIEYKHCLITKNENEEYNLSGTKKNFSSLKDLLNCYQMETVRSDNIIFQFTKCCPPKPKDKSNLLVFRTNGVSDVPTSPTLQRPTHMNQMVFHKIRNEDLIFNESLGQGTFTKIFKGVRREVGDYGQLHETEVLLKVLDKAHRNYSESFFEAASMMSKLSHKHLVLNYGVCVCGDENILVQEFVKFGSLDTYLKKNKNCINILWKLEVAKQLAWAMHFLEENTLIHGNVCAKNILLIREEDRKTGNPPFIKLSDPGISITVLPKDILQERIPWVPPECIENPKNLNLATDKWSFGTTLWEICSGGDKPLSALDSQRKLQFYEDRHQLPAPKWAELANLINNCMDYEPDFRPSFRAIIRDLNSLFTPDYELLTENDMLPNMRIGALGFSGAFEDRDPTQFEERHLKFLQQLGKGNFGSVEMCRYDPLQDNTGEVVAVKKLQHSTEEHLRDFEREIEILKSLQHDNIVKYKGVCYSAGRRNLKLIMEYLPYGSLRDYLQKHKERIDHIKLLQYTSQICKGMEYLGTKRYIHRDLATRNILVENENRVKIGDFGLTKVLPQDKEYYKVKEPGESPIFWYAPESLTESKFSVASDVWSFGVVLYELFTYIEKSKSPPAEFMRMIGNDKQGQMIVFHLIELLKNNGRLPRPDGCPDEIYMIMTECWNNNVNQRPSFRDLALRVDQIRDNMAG
# Sequence of Tyrosine-protein kinase Lyn (Homo sapiens) (P07948 2-512 limits assumed): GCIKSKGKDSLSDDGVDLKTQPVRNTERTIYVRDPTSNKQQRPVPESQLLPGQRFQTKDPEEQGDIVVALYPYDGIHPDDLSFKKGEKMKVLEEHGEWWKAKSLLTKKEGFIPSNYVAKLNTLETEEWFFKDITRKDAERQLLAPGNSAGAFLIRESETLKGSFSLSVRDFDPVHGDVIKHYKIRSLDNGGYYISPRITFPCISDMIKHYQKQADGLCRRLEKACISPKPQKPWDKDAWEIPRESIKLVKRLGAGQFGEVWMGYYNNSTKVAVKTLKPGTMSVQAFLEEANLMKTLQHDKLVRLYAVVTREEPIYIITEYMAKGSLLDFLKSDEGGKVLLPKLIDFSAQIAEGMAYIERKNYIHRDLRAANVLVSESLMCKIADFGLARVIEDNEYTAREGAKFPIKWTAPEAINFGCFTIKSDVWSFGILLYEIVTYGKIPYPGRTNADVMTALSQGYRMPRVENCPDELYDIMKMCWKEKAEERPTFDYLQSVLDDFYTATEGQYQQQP
# Sequence of Serine/threonine-protein kinase pim-2 (Homo sapiens) (Q9P1W9 whole entry, looked up): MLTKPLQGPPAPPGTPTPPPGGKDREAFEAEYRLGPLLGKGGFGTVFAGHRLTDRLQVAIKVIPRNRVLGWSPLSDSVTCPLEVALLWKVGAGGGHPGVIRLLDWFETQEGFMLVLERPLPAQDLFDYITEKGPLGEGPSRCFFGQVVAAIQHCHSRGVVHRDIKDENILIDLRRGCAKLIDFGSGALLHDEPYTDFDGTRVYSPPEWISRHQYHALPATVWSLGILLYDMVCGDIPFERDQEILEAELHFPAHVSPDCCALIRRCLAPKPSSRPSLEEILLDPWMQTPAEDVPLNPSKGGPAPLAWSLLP
# Sequence of Serine/threonine-protein kinase pim-1 (Homo sapiens) (P11309 whole entry, looked up): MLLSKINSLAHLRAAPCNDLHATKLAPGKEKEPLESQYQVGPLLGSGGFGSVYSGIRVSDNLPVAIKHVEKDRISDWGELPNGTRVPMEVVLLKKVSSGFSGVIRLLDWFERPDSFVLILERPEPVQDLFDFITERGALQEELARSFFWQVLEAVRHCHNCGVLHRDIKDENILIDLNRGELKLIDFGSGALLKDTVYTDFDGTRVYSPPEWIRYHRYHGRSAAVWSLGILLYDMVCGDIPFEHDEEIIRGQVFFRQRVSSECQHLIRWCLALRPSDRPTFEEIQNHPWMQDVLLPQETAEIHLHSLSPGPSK
SMILES,inhibition [1] [%],IC50 [2] [µM],IC50 [6] [µM],IC50 [7] [µM],inhibition [8] [%],IC50 [9] [µM],IC50 [10] [µM],inhibition [12] [%],IC50 [13] [µM],inhibition [14] [%],IC50 [15] [µM],IC50 [16] [µM],other results
O=[N+]([O-])c1ccc(O)cc1CNc1cc(Br)cc2[nH]ncc12,99,> 20,0.46,> 20,92,> 20,0.91,96,> 20,98,> 20,> 20,Activity [3]: Non-Toxic; inhibition in vivo at 50 mg/kg [4]: 60.5%; Activity [5]: Active; Activity [11]: Active
Cc1ccc(CNc2cc(C(F)(F)F)cc3[nH]ncc23)c([N+](=O)O)c1,92,37.4,0.62,3.43,36,0.54,> 100,90,7.25,62,1.34,5.08,Activity [17]: Non-Toxic; Activity [18]: Active; IC50 [19]: 0.06 µM; inhibition in vivo at 25 mg/kg [20]: 76.9%; Activity [21]: Active; Activity [22]: Active; Activity [23]: Active; Activity [24]: Non-Toxic; Activity [25]: Active
O=[N+]([O-])c1ccccc1CNc1cc(C(F)(F)F)cc2[nH]ncc12,95,> 20,2.55,2.35,35,7.76,13.9,89,> 20,76,9.01,7.58,inhibition [26]: 100%; inhibition [27]: 0%; inhibition [28]: 61%; inhibition [29]: 78%; inhibition [30]: 93%; inhibition [31]: 12%; inhibition [32]: 33%; inhibition [33]: 27%; inhibition [34]: 50%; inhibition [35]: 78%; inhibition [36]: 23%; inhibition [37]: 66%; inhibition [38]: 35%; inhibition [39]: 4%; inhibition [40]: 33%; inhibition [41]: 96%; inhibition [42]: 31%
NS(=O)(=O)NCCNc1nonc1/C(=N/O)Nc1ccc(F)c(Br)c1 [EPACADOSTAT],–,–,–,–,–,–,–,–,–,–,–,–,inhibition in vivo at 30 mg/kg [43]: 57.5%

# Reference: ChEMBL document CHEMBL5108015, “4,6-Disubstituted-1H-Indazole-4-Amine derivatives with immune-chemotherapy effect and in vivo antitumor activity” (Eur J Med Chem, 2022)
